Here are results for 24 molecules from US20250214969A1, “PROTEIN DEGRADERS AND USES THEREOF” (Kymera Therapeutics, Inc., priority 2022, published 2025).

For one test, the target named is T1, truncated His-MBP-Tev-KLHDC2 (residues 1-363) (Homo sapiens, UniProt Q9Y2U9).
T1 construct: truncated His -MBP-Tev-KLHDC2 (residues 1-363) purified from E. coli; made in house; host or cells: E. coli
T1 sequence (Q9Y2U9 1-363): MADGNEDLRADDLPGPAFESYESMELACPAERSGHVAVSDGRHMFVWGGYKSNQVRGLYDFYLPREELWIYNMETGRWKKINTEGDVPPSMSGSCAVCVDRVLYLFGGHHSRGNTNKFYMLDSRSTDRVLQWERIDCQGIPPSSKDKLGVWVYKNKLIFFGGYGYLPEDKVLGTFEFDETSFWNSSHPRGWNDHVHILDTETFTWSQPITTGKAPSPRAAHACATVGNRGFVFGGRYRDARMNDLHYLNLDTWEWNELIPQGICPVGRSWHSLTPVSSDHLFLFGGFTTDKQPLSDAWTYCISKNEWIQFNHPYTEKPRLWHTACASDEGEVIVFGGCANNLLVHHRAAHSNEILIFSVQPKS
The experiment in a line: KLHDC2 HTRF binding assay. The settings on record: 1 nM KLHDC2 (residues 1-363), fluorescein-labeled diglycine peptide probe.
With `COc1cc(-c2ccc(C)cc2)ccc1C(=O)Nc1ccc(=O)n(CC(=O)O)c1` [I-135], the IC50 lay in the range of 0.5 to 5 µM.

`CC(C)Cn1ncc2c(C(=O)Nc3ccc(=O)n(CC(=O)O)c3)cccc21` [I-136] displayed an IC50 of 0.5 to 5 µM.

`NCCCCCCn1ccc2c(C(=O)Nc3ccc(=O)n(CC(=O)O)c3)cccc21` [I-137]: the IC50 was above 5 µM.

Turning to `O=C(O)Cn1cc(NC(=O)c2cccc(-c3nc4ccccc4s3)c2)ccc1=O` [I-138], the IC50 was in the range of 0.05 to 0.5 µM.

On to `O=C(O)Cn1cc(NC(=O)c2cccc3[nH]ccc23)ccc1=O` [I-139], for which the IC50 was 0.5 to 5 µM.

The molecule `O=C(O)Cn1cc(NC(=O)N2CCC(c3ccccc3)CC2)ccc1=O` [I-140] yielded an IC50 above 5 µM.

The molecule `O=C(O)Cn1cc(NC(=O)c2cccc(-c3cccnc3)n2)ccc1=O` [I-141] displayed an IC50 of 0.5 to 5 µM.

Regarding `O=C(O)Cn1cc(NC(=O)c2cc(-c3cccnc3)ccn2)ccc1=O` [I-142], the IC50 was 0.05 to 0.5 µM.

`COc1cc(-c2ccsc2)ccc1C(=O)Nc1ccc(=O)n(CC(=O)O)c1` [I-143] returned an IC50 of 0.5 to 5 µM.

On to `NCCCCCCc1ccc(C(=O)Nc2ccc(=O)n(CC(=O)O)c2)cc1-c1cccnc1` [I-144], for which the IC50 lay in the range of 0.5 to 5 µM.

`Cn1ccc2c(C(=O)Nc3ccc(=O)n(CC(=O)O)c3)cccc21` [I-145]: the IC50 lay within 0.5 to 5 µM.

Regarding `CC(C)(C)OC(=O)NCCCCCCc1ccc(C(=O)Nc2ccc(=O)n(CC(=O)O)c2)cc1-c1cccnc1` [I-146], the IC50 is 0.05 to 0.5 µM.

`CCOC(=O)Cn1cc(NC(=O)c2ccc(CCCCCCN)c(-c3cccnc3)c2)ccc1=O` [I-147] gave an IC50 above 5 µM.

Regarding `COc1cc(-c2nccs2)ccc1C(=O)Nc1ccc(=O)n(CC(=O)O)c1` [I-148], the IC50 fell in the range of 0.5 to 5 µM.

Turning to `COc1cc(-c2ccccn2)ccc1C(=O)Nc1ccc(=O)n(CC(=O)O)c1` [I-149], the IC50 lay within 0.5 to 5 µM.

The molecule `CCOC(=O)Cn1cc(NC(=O)c2ccc(CCCCCCNC(=O)OC(C)(C)C)c(-c3cccnc3)c2)ccc1=O` [I-150] showed an IC50 above 5 µM.

`Nc1ccc2cc(C(=O)Nc3ccc(=O)n(CC(=O)O)c3)ccc2c1` [I-151] returned an IC50 of 0.5 to 5 µM.

In turn, `CCOC(=O)Cn1cc(NC(=O)c2cccc(-c3cnccc3CCCCCCN)c2)ccc1=O` [I-152] registered an IC50 above 5 µM.

Turning to `COc1cc(-c2cccs2)ccc1C(=O)Nc1ccc(=O)n(CC(=O)O)c1` [I-153], the concentration for half-maximal inhibition (IC50) lay in the range of 0.5 to 5 µM.

`COc1cc(-c2cncs2)ccc1C(=O)Nc1ccc(=O)n(CC(=O)O)c1` [I-154] came in with an IC50 of 0.5 to 5 µM.

`COc1cc(-c2ccc(F)cc2)ccc1C(=O)Nc1ccc(=O)n(CC(=O)O)c1` [I-155] showed an IC50 of 0.05 to 0.5 µM.

Molecule `CCOC(=O)Cn1cc(NC(=O)c2cccc(-c3cnccc3CCCCCCNC(=O)OC(C)(C)C)c2)ccc1=O` [I-156] registered an IC50 above 5 µM.

`CCOC(=O)Cn1cc(NC(=O)c2cc(CCCCCCN)cc(-c3cccnc3)c2)ccc1=O` [I-157] showed an IC50 above 5 µM.

As for `CCOC(=O)Cn1cc(NC(=O)c2cccc(-c3cncc(CCCCCCNC(=O)OC(C)(C)C)c3)c2)ccc1=O` [I-158], the IC50 was above 5 µM.

The next test concerns the target T1, truncated His-MBP-Tev-KLHDC2 (residues 1-363). The test is described as follows: KLHDC2 FP competition binding assay. The settings on record: 15 nM KLHDC2 (residues 1-363), 10 nM fluorescein-labeled diglycine peptide probe, read-out: KLHDC2 binding Human FP: average external IC50.
Regarding `COc1cc(-c2ccc(C)cc2)ccc1C(=O)Nc1ccc(=O)n(CC(=O)O)c1` [I-135], the IC50 was above 5 µM.

On to `CC(C)Cn1ncc2c(C(=O)Nc3ccc(=O)n(CC(=O)O)c3)cccc21` [I-136], for which the IC50 was above 5 µM.

As for `NCCCCCCn1ccc2c(C(=O)Nc3ccc(=O)n(CC(=O)O)c3)cccc21` [I-137], the IC50 was above 5 µM.

Take `O=C(O)Cn1cc(NC(=O)c2cccc(-c3nc4ccccc4s3)c2)ccc1=O` [I-138]: the IC50 lay in the range of 0.5 to 5 µM.

`O=C(O)Cn1cc(NC(=O)c2cccc3[nH]ccc23)ccc1=O` [I-139]: the IC50 is above 5 µM.

On to `O=C(O)Cn1cc(NC(=O)N2CCC(c3ccccc3)CC2)ccc1=O` [I-140], for which the IC50 is above 5 µM.

Turning to `O=C(O)Cn1cc(NC(=O)c2cccc(-c3cccnc3)n2)ccc1=O` [I-141], the IC50 is above 5 µM.

Regarding `O=C(O)Cn1cc(NC(=O)c2cc(-c3cccnc3)ccn2)ccc1=O` [I-142], the IC50 lay within 0.5 to 5 µM.

As to `COc1cc(-c2ccsc2)ccc1C(=O)Nc1ccc(=O)n(CC(=O)O)c1` [I-143], the IC50 was 0.5 to 5 µM.

Consider `NCCCCCCc1ccc(C(=O)Nc2ccc(=O)n(CC(=O)O)c2)cc1-c1cccnc1` [I-144], for which the IC50 lay within 0.5 to 5 µM.

Turning to `Cn1ccc2c(C(=O)Nc3ccc(=O)n(CC(=O)O)c3)cccc21` [I-145], the IC50 was above 5 µM.

For the molecule `CC(C)(C)OC(=O)NCCCCCCc1ccc(C(=O)Nc2ccc(=O)n(CC(=O)O)c2)cc1-c1cccnc1` [I-146], the IC50 lay within 0.05 to 0.5 µM.

With `CCOC(=O)Cn1cc(NC(=O)c2ccc(CCCCCCN)c(-c3cccnc3)c2)ccc1=O` [I-147], the IC50 is above 5 µM.

Turning to `COc1cc(-c2nccs2)ccc1C(=O)Nc1ccc(=O)n(CC(=O)O)c1` [I-148], the half-maximal inhibitory concentration (IC50) lay within 0.5 to 5 µM.

As to `COc1cc(-c2ccccn2)ccc1C(=O)Nc1ccc(=O)n(CC(=O)O)c1` [I-149], the IC50 is 0.5 to 5 µM.

On to `CCOC(=O)Cn1cc(NC(=O)c2ccc(CCCCCCNC(=O)OC(C)(C)C)c(-c3cccnc3)c2)ccc1=O` [I-150], for which the IC50 is above 5 µM.

With `Nc1ccc2cc(C(=O)Nc3ccc(=O)n(CC(=O)O)c3)ccc2c1` [I-151], the IC50 is above 5 µM.

On to `CCOC(=O)Cn1cc(NC(=O)c2cccc(-c3cnccc3CCCCCCN)c2)ccc1=O` [I-152], for which the IC50 is above 5 µM.

As for `COc1cc(-c2cccs2)ccc1C(=O)Nc1ccc(=O)n(CC(=O)O)c1` [I-153], the concentration for half-maximal inhibition (IC50) lay within 0.5 to 5 µM.

As for `COc1cc(-c2cncs2)ccc1C(=O)Nc1ccc(=O)n(CC(=O)O)c1` [I-154], the IC50 was above 5 µM.

`COc1cc(-c2ccc(F)cc2)ccc1C(=O)Nc1ccc(=O)n(CC(=O)O)c1` [I-155]: the IC50 is 0.5 to 5 µM.

In the case of `CCOC(=O)Cn1cc(NC(=O)c2cccc(-c3cnccc3CCCCCCNC(=O)OC(C)(C)C)c2)ccc1=O` [I-156], the IC50 is above 5 µM.

Consider `CCOC(=O)Cn1cc(NC(=O)c2cc(CCCCCCN)cc(-c3cccnc3)c2)ccc1=O` [I-157], for which the IC50 is above 5 µM.

`CCOC(=O)Cn1cc(NC(=O)c2cccc(-c3cncc(CCCCCCNC(=O)OC(C)(C)C)c3)c2)ccc1=O` [I-158]: the IC50 was above 5 µM.
